Test results as given in US20240165272A1, “Liver-targeted fluorescence/photoacoustic dual-modal probe for early detecting drug-induced hepatic inflammation and autoimmune hepatitis” (BEIJING UNIVERSITY OF TECHNOLOGY, priority 2022, published 2024).

Tests used:
[1] = Fluorescence response of hCy-Tf-CA to O2·^− in ethanol-phosphate buffer
Experimental: (§1) 10 μL of probe stock solution (1 mM) was added to 1 mL of ethanol-phosphate buffer solution (ethanol/PBS=1/1, v/v, pH=7.4). To characterize the responsiveness of hCy-Tf-CA, 40 μL O2·^− stock solution (2.5 mM) was added to above solution.
The reaction system was prepared under the same experimental conditions. […] That is due to the nucleophilic O2·^− cleavage of trifluoromethonium sulfonate, which restored the strong electron-donating phenol and it-conjugation on the fluorophore. […] The probe hCy-Tf-CA is an enhanced fluorescence probe.
Under the same experimental conditions, 10 μL of probe stock solution (1 mM) was added to 1 mL of ethanol-phosphate buffer solution, the O2·^− titration experiment was then carried out. The fluorescence intensity at 730 nm were tested 10 minutes later. […] (FIGS. 4 and 5).

[2] = Photoacoustic response of hCy-Tf-CA to O2·^−; conditions: probe 10 μM, O2·^− 100 μM, 10 min
Experimental: as §1
The reaction system was prepared under the same experimental conditions. […] The photoacoustic signal of hCy-Tf-CA only at 710 nm is very weak (FIG. 3).
Under the same experimental conditions, 10 μL of probe stock solution (1 mM) was added to 1 mL of ethanol-phosphate buffer solution, the O2·^− titration experiment then was carried out and the photoacoustic intensity at 710 nm were tested 10 minutes later.

[3] = Selective response: fluorescence against potential interferents; conditions: probe 10 μM
Experimental: The specificity of hCy-Tf-CA was determined against various potential interferents (Na^+, K^+, Ca^2+, Mg^2+, Zn^2+, Cu^2+, HS^−, HClO, H2O2, ·OH, ONOO^−, glucose, glutathione, cysteine, vitamin C, nitroreductase, alkaline phosphatase, β-galactosidase and leucine aminopeptidase). Under the same experimental conditions, 10 μL of probe stock solution (1 mM) was added to 1 mL of ethanol-phosphate buffer solution. Then stock solutions of various potential interferents were respectively added to above solution, then the fluorescence intensity at 730 nm was tested. […] Therefore, these potential interferents barely effect on the selective response to O2·^−, implying that the probe hCy-Tf-CA prepared by the invention has good selectivity.

[4] = test system: HepG2 cells; assay: Biocompatibility study, CCK-8 assay; format: cell-based; conditions: 24 h exposure to 10 μM
Experimental: Inspired by the excellent responsiveness of the probe hCy-Tf-CA to O2·^−, its biocompatibility and potential for further applications in living cells were assessed. HepG2 cells were plated in a 96-well plates at […] and incubated overnight in the cell incubator. Then the cells were washed with culture medium and incubated with various concentrations of hCy-Tf-CA (1, 2, 4, 8, 10 μM) at 37° C. for 24 h. After removing the above solution, CCK-8 reagent diluted with culture medium was added to each well and incubated at 37° C. for 60 min. Finally, the absorbance was finally measured at 450 nm by a microplate reader. Cell viability was calculated using the following formula:
Calculation of cell viability: Cell viability (%)=(Aexperimental group−Ablank group)/(Acontrol group−Ablank group)×100%.

[5] = test system: HepG2 cells; assay: Fluorescence imaging of endogenous O2·^− in HepG2 cells; format: cell-based
Experimental: To evaluate the capacity of hCy-Tf-CA to image O2·^− fluctuation in living cells, HepG2 cells were plated in a glass-bottom dish for 24 h to 80% density before the experiment. Cell fluorescence imaging of hCy-Tf-CA was divided into five groups. In the first group, hCy-Tf-CA (10 μM) was incubated with cells for 30 min. In the second group, cells were pretreated with lipopolysaccharide (LPS, 1 μg/mL) and interferon-gamma (IFN-γ, 50 ng/mL) for 12 h, then washed twice with PBS buffer before incubating with hCy-Tf-CA (10 μM) for 30 min. In the third group, cells were pretreated with LPS (1 μg/mL), IFN-γ (50 ng/mL) and 2,2,6,6-tetramethylpiperidine-N-oxyl (TEMPO, 300 μM) for 12 h, then washed twice with PBS buffer before incubating with hCy-Tf-CA (10 μM) for 30 min. In the fourth and fifth groups, cells were pretreated with H2O2 or Na2SO3 (100 μM) for 30 min, then washed twice with PBS buffer before incubating with hCy-Tf-CA (10 μM) for 30 min. The cells were washed 3 times with PBS buffer before cell imaging. Fluorescence images of the cells were captured by a Nikon AX R microscope with DAPI channel (λex'404 nm, λem=425-475 nm) and Cy5.5 channel (λex=639 nm, λem=663-738).

[6] = test system: mouse model of drug-induced hepatic inflammation; assay: Fluorescence/photoacoustic dual-modal imaging of drug-induced (APAP) hepatic inflammation; format: in vivo, Balb/c female mice
Experimental: In order to visually detect hepatic O2·^− concentration and drug-induced hepatic inflammation by fluorescence/photoacoustic dual-modal imaging, Balb/c female mice were intraperitoneally injected with overdose of APAP (300 mg/Kg) to cause drug-induced hepatic inflammation, and PBS injected mice served as the control group. The probe hCy-Tf-CA (50 μM, 100 μL) were administrated intravenously for in vivo fluorescence/photoacoustic dual-modal imaging. Images at predetermined time points were recorded on IVIS imaging system (Perkin Elmer, λex=675 nm, λem=760 nm) and InVision 256-TF imaging system (iThera Medical, λex=710 nm).

[7] = test system: mouse model of autoimmune hepatitis; assay: Fluorescence/photoacoustic dual-modal imaging of autoimmune hepatitis (Con A); format: in vivo, Balb/c female mice
Experimental: In order to visually detect autoimmune hepatitis by fluorescence/photoacoustic dual-modal imaging, Balb/c female mice were intravenously injected with a single dose Con A (20 mg/Kg, dissolved in 100 μL PBS) for 2 h to induce early autoimmune hepatitis, and the remaining mice were treated with PBS solution as controls. hCy-Tf-CA was then intravenously injected into mice for in vivo imaging, and representative NIRF/PA dual-modal images of different treated mice were recorded at chosen times. Images at predetermined time points were recorded on IVIS imaging system (Perkin Elmer, λex=675 nm, λem=760 nm) and InVision 256-TF imaging system (iThera Medical, λex=710 nm).

C[C@H](CCC(=O)NCCC[N+]1=C(/C=C/C2=C3Oc4cc(OS(=O)(=O)C(F)(F)F)c(Cl)cc4C=C3CCC2)C(C)(C)c2c1ccc1ccccc21)[C@H]1CC[C@H]2[C@@H]3[C@H](O)C[C@@H]4C[C@H](O)CC[C@]4(C)[C@H]3C[C@H](O)[C@]12C [hCy-Tf-CA]
O2·^− concentration at which fluorescence intensity reached a plateau ([1]; probe 10 μM, 10 min, at 740 nm as printed): 100 µM
fluorescence intensity at 730 nm increase compared with probe alone ([1]; probe 10 μM, O2·^− 100 μM, 10 min, λex=680 nm, ethanol/PBS=1/1, pH=7.4): 17 fold
fluorescence intensity increase after reaction with O2·^− ([1]; summary statement): 17 times
photoacoustic signal enhancement at 710 nm after treatment with O2·^− [2]: 7 fold
fluorescence response to O2·^− in the selectivity test ([3]; 730 nm): significant response
fluorescence response at 730 nm to potential interferents ([3]; analytes 100 μM, enzyme 0.1 U·mL^−1): barely respond
cell viability [4]: more than 90%
intracellular fluorescence after LPS/IFN-γ in the presence of TEMPO ([5]; HepG2, LPS/IFN-γ plus TEMPO 300 μM for 12 h, probe 10 μM 30 min): largely suppressed
intracellular fluorescence, normal conditions ([5]; HepG2, probe 10 μM, 30 min, no pretreatment): weak fluorescence
fluorescence fluctuations in H2O2-treated or SO3^2−-treated cells ([5]; HepG2 pretreated with H2O2 or Na2SO3 100 μM for 30 min, probe 10 μM 30 min): negligible
intracellular fluorescence intensity after LPS/IFN-γ ([5]; HepG2 pretreated with LPS 1 μg/mL and IFN-γ 50 ng/mL for 12 h, probe 10 μM 30 min): significantly increased
ex vivo hepatic fluorescence signal, APAP-treated mice versus health mice ([6]; 2 h after intravenous administration): obviously higher
ex vivo organ distribution of fluorescence signal ([6]; 2 h after intravenous administration, liver versus heart, spleen, lung and kidney): mainly located in the liver
in vivo fluorescence signal intensity, APAP-treated mice versus control mice ([6]; 2 h post-injection, probe 50 μM 100 μL i.v., APAP 300 mg/Kg i.p.): significantly higher
photoacoustic signal in the liver, APAP-treated mice versus healthy mice ([6]; λex=710 nm, cross-sectional images): significantly higher
in vivo fluorescence signal intensity in the liver region of Con A-treated mice over time ([7]; Con A 20 mg/Kg i.v. for 2 h, probe i.v.): gradually enhanced
rate of increase of hepatic photoacoustic signal, Con A-treated mice versus control mice ([7]; after injection of probe): increased faster
photoacoustic signal in the liver, Con A-treated mice versus healthy mice ([7]; at 2 h, λex=710 nm): obviously higher
location of fluorescence signals (ex vivo) ([7]; both groups (Con A-treated and control)): mainly located in the liver
ex vivo fluorescence signals, Con A-treated mice versus control mice ([7]; mouse, in vivo): apparently brighter
